Measurements: publication PMC4841536, “Characterization of the Anti-HCV Activities of the New Cyclophilin Inhibitor STG-175” (PLoS ONE, 2016)
Read-outs that look alike come from different tables or passages of the source.

Columns and labels:
[1] = test system: HCV in mixed PBMCs, NTCP-Huh7 and Huh7.5.1 cells; assay: Dual/triple co-infection in cell co-cultures, HCV readout; format: cell-based, hepatitis C virus
[2] = test system: HCV GT1a, GT1b, GT2a, GT3a and GT4a replicons; assay: Panel of HCV replicon cell lines GT1a to 4a (summary statements); format: cell-based; conditions: Hepatitis C virus, read-out: EC50 range among HCV GTs (GT1a to 4a), multi-genotypic anti-HCV activity
[3] = test system: wild-type Con1 GT1b replicon; assay: Electroporated Con1 RNA replication in Huh7.5.1 cells (RT-qPCR), wild-type; format: cell-based; conditions: Hepatitis C virus
Excerpt: (§1) The GT1b subgenomic firefly luciferase reporter replicon pFK-I389/NS3–3 was provided by R. Bartenschlager. The GT1B subgenomic NS3, NS5A and NS5B mutants were created via homologous recombination using the In-Fusion HD Cloning kit (Clontech) as we described previously. […] The in vitro transcription of wild-type and mutant Con1 RNA was accomplished using the T7 MEGAscript kit (Ambion) by following the manufacturer’s instructions. In vitro-transcribed RNAs were introduced into Huh7.5.1 cells by electroporation. Trypsinized cells were washed twice and resuspended in phosphate-buffered saline (PBS) (calcium-free and magnesium-free) at 1x 10^7 cells per ml. Ten micrograms of RNA for each mutant was mixed with 0.4 mL of cells in a 4-mm cuvette, and a Bio-Rad Gene Pulser system was used to deliver a single pulse at 0.27 kV, 100 ohms, and 960 μF. Cells were then plated in 12-well dishes. RNA transfection efficiency and HCV subgenomic replication were assessed by reverse transcription-quantitative PCR (RT-qPCR) and presented as genome equivalents (GE) per microgram of total RNA as described previously. We measured by RT-qPCR the replication of wild-type, STG-175-, NS5Ai-, NS3i- and NS5Bi-resistant mutants in the presence of increasing concentrations of SGT-175, daclatasvir, telaprevir, boceprevir and sofosbuvir over a period of 8 days.
(§2) Fig 3 Replicon clearance, replication rebound and resistance analyses. […] Then drugs were removed to allow viral replication rebound to occur. At each passage, samples of cells were collected, RNA extracted and analyzed by RT-PCR for HCV RNA levels. B. Emergence of resistance: Con1 replicon Huh-7 cells were passaged 22 times in the absence or presence of STG-175 or selected DAAs. At each passage, sample of cells were collected, RNA extracted and analyzed by RT-PCR for HCV RNA levels. C. […] Data are expressed as number of HCV RNA copies per cell. […] Data are expressed as mean of relative light units and calculated EC50s are presented. […] E. Degree of resistance of D320E and Y321N Con1 variants: Left panel. Wild-type (WT), D320E and D320/Y321N NS5A Con1 RNA were electroporated into Huh7.5.1 cells and replication monitored over 8 days by quantifying the levels of intracellular HCV RNA. Right panel. Same as just above except that increasing concentrations of STG-175 were added at the time of the electroporation. […] STG-175 is taken as the substance from the printed x-axis title 'STG-175 in Log nM'.
To determine whether the D320E and Y321N substitutions truly render HCV resistant to STG-175, they were introduced into wild-type Con1 replicon as we described previously. Introduction of the substitutions was verified by sequencing. In vitro-transcribed wild-type, D320E and D320E/Y321N HCV RNAs were then electroporated into Huh7.5.1 cells and viral replication assessed by RT-qPCR and presented as GE per microgram of total RNA as we described previously. […] We then analyzed the replication of wild-type, D320E and D320E/Y321N in the presence of increasing concentrations of SGT-175 over a period of 8 days.
Fig 5 Cross-resistance analyses.

[4] = test system: NS3i-resistant R155Q/A156T NS3 Con1 GT1b replicon; assay: Electroporated Con1 RNA replication in Huh7.5.1 cells (RT-qPCR), R155Q/A156T NS3; format: cell-based; conditions: Hepatitis C virus, Huh-7.5.1, 192 h, read-out: EC50 R155Q/A156T NS3
Excerpt: as §1, with “Cells were then plated in 12-well dishes.” left out
Fig 5 Cross-resistance analyses. […] Data are expressed as log of GE/μg of total RNA. […]

[5] = test system: subgenomic Con1 (GT1b) replicon in Huh-7 cells; format: cell-based, hepatitis C virus; conditions: for passage at which resistant variants emerged (CypI comparison): Fig 3C
Experimental: Huh-7 cell expressing subgenomic Con1 (GT1b) replicon were seeded in a 10 cm dish at a density of 3 × 10^5 cells per culture flask in complete DMEM (with G418) with STG-175 or selected drugs. Cells were grown until they reached 90% confluence, trypsinized and re-seeded at the same cell concentration in a new 10-cm dish with the same drug concentration. Cells were passaged 22 times in the presence of drugs. At each passage, sample of cells were collected, RNA extracted according to the manufacturer's instructions and analyzed by RT-PCR for HCV RNA levels.
as §2
We then examined the development of resistance to STG-175. GT1b Con1 sub-genomic replicon cells were grown in the presence of STG-175 (0.25 and 1 μM), telaprevir (2.5 and 10 μM), boceprevir (2.5 and 10 μM), daclatasvir 100 pM and 1 nM) or a combination of STG-175 (0.25 μM) with either telaprevir (2.5 μM), boceprevir (2.5 μM) or daclatasvir (100 pM) for 22 successive passages. At each passage, fresh drug was added and a sample of cells was taken to quantify HCV RNA levels by RT-qPCR.

SMILES: CC=CCC(C)C(O)C1C(=O)NC(CC)C(=O)N(C)C(CSCCCCO)C(=O)N(C)C(CC(C)(C)O)C(=O)NC(C(C)C)C(=O)N(C)C(CC(C)C)C(=O)NC(C)C(=O)NC(C)C(=O)N(C)C(CC(C)C)C(=O)N(C)C(CC(C)C)C(=O)N(C)C(C(C)C)C(=O)N1C (centres unmarked) [STG-175]
- HCV infection in co-infection ([1]; STG-175 added together with virus): totally blocked
- pre-established HCV infection in co-infection ([1]; added 3 days post-infection and then every 3 days): totally eradicated
- EC50 [2]: 11.5 to 38.9 nM
- EC50 ([3]; Huh-7.5.1, 144 h, read-out: EC50, WT replicon): 35.7 nM
- EC50 ([3]; Huh-7.5.1, 192 h, read-out: EC50, WT replicon): 34.4 nM
- EC50 ([3]; Huh-7.5.1, 192 h, read-out: EC50 GT1b WT): 10.6 nM
- EC50 [4]: 13.6 nM
- cell culture passages required to detect emergence of resistant replicon colonies [5]: > 16 passages
- passage at which resistant variants emerged (CypI comparison) ([5]; 0.25 μM of drug selection): 18 passage
- passage at which resistance began ([5]; 1 μM drug pressure, first account (Fig 3B)): 19 passage
- passage at which resistant variants emerged (CypI comparison) ([5]; 1 μM of drug selection): 21 passage
